The values that follow come from patent publication US20240132431A1, “METHOD FOR ALKYLATING ACIDIC FUNCTIONAL GROUP” (Chugai Seiyaku Kabushiki Kaisha, priority 2021, published 2024).

This assay has as its target T1, Bcl-2 protein (Recombinant Human Bcl-2 Protein) (Homo sapiens, UniProt P10415).
T1 construct: purchased Novus NBP2-34889
Kind of assay: Binding evaluation of mixture library compounds to Bcl-2 using AS-MS (affinity selection mass spectrometry). Conditions: AS-MS, mixture library, Bcl-2, ASMS Ratio(%)=(A−C)/B×100; for ASMS ratio (%) n = 1: replicate n = 1; for ASMS ratio (%) n = 2: replicate n = 2. The procedure, abridged:
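Readout is ASMS Ratio (%), (A−C)/B×100, from reversed-phase LC/MS of SEC-passed extracts, with protein-free unfiltered standard (B) and protein-free SEC blank (C). Recombinant human Bcl-2 at 20 μM final met ~1200 pooled compounds at […] each for 1 h, 23° C., dark, in Tris-HCl pH 7.4 buffer.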

T1 sequence (P10415 whole entry): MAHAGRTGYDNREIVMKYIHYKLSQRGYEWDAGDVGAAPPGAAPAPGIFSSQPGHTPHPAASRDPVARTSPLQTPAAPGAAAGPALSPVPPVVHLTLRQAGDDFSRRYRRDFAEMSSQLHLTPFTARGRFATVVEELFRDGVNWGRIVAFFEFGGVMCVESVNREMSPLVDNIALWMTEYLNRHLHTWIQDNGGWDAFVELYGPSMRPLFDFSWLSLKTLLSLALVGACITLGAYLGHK

On to `CCOc1cccc(-c2ccccc2CCC(=O)N2CCN(c3ccc(C(=O)NS(=O)(=O)CC45CC6CC(CC(C6)C4)C5)nn3)CC2)c1` [B2A011-01, N-(1-Adamantylmethylsulfonyl)-6-[4-[3-[2-(3-ethoxyphenyl)phenyl]propanoyl]piperazin-1-yl]pyridazine-3-carboxamide], for which the “ASMS ratio (%) n = 1” value is listed as 9.0% and the “ASMS ratio (%) n = 2” value is given as 0.3%.

For `CCOc1cncc(-c2ccccc2CCC(=O)N2CCN(c3ccc(C(=O)NS(=O)(=O)CC45CC6CC(CC(C6)C4)C5)nn3)CC2)c1` [B2A012-01, N-(1-Adamantylmethylsulfonyl)-6-[4-[3-[2-(5-ethoxypyridin-3-yl)phenyl]propanoyl]piperazin-1-yl]pyridazine-3-carboxamide], the “ASMS ratio (%) n = 1” value is given as 1.5% and the “ASMS ratio (%) n = 2” value turned out to be 1.9%.

As to `CCOc1cccc(-c2ccc(C(=O)N3CCN(c4ccc(C(=O)NS(=O)(=O)CC56CC7CC(CC(C7)C5)C6)nn4)CC3)c3ccccc23)c1` [B2A013-01, N-(1-Adamantylmethylsulfonyl)-6-[4-[4-(3-ethoxyphenyl)naphthalene-1-carbonyl]piperazin-1-yl]pyridazine-3-carboxamide], the “ASMS ratio (%) n = 1” value came out at 11.6% and the “ASMS ratio (%) n = 2” value came out at 17.8%.

Turning to `CCOc1cncc(-c2ccc(C(=O)N3CCN(c4ccc(C(=O)NS(=O)(=O)CC56CC7CC(CC(C7)C5)C6)nn4)CC3)c3ccccc23)c1` [B2A014-01, N-(1-Adamantylmethylsulfonyl)-6-[4-[4-(5-ethoxypyridin-3-yl)naphthalene-1-carbonyl]piperazin-1-yl]pyridazine-3-carboxamide], the “ASMS ratio (%) n = 1” value turned out to be 7.7% and the “ASMS ratio (%) n = 2” value is on record as 2.2%.

On to `CCOc1cccc(-c2cc(C(=O)N3CCN(c4ccc(C(=O)NS(=O)(=O)CC56CC7CC(CC(C7)C5)C6)nn4)CC3)cc(C(C)(C)C)c2)c1` [B2A015-01, N-(1-Adamantylmethylsulfonyl)-6-[4-[3-tert-butyl-5-(3-ethoxyphenyl)benzoyl]piperazin-1-yl]pyridazine-3-carboxamide], for which the “ASMS ratio (%) n = 1” value is reported as 5.9% and the “ASMS ratio (%) n = 2” value is reported as 9.7%.

Regarding `CCOc1cncc(-c2cc(C(=O)N3CCN(c4ccc(C(=O)NS(=O)(=O)CC56CC7CC(CC(C7)C5)C6)nn4)CC3)cc(C(C)(C)C)c2)c1` [B2A016-01, N-(1-Adamantylmethylsulfonyl)-6-[4-[3-tert-butyl-5-(5-ethoxypyridin-3-yl)benzoyl]piperazin-1-yl]pyridazine-3-carboxamide], the “ASMS ratio (%) n = 1” value is given as 0.0% and the “ASMS ratio (%) n = 2” value is reported as 2.5%.

Take `CCOc1cccc(-c2cc(C(=O)N3CCN(c4ccc(C(=O)NS(=O)(=O)CC56CC7CC(CC(C7)C5)C6)nn4)CC3)cc(C(F)(F)F)c2)c1` [B2A017-01, N-(1-Adamantylmethylsulfonyl)-6-[4-[3-(3-ethoxyphenyl)-5-(trifluoromethyl)benzoyl]piperazin-1-yl]pyridazine-3-carboxamide]: the “ASMS ratio (%) n = 1” value was 18.6% and the “ASMS ratio (%) n = 2” value was 7.5%.

For `CCOc1cncc(-c2cc(C(=O)N3CCN(c4ccc(C(=O)NS(=O)(=O)CC56CC7CC(CC(C7)C5)C6)nn4)CC3)cc(C(F)(F)F)c2)c1` [B2A018-01, N-(1-Adamantylmethylsulfonyl)-6-[4-[3-(5-ethoxypyridin-3-yl)-5-(trifluoromethyl)benzoyl]piperazin-1-yl]pyridazine-3-carboxamide], the “ASMS ratio (%) n = 1” value stood at 5.1% and the “ASMS ratio (%) n = 2” value was found to be 0.0%.

Take `CCOc1cccc(C#Cc2cc(C(=O)N3CCN(c4ccc(C(=O)NS(=O)(=O)CC56CC7CC(CC(C7)C5)C6)nn4)CC3)cc(C(F)(F)F)c2)c1` [B2A019-01, N-(1-Adamantylmethylsulfonyl)-6-[4-[3-[2-(3-ethoxyphenyl)ethynyl]-5-(trifluoromethyl)benzoyl]piperazin-1-yl]pyridazine-3-carboxamide]: the “ASMS ratio (%) n = 1” value was determined as 7.4% and the “ASMS ratio (%) n = 2” value stood at 5.0%.

With `CCOc1cncc(C#Cc2cc(C(=O)N3CCN(c4ccc(C(=O)NS(=O)(=O)CC56CC7CC(CC(C7)C5)C6)nn4)CC3)cc(C(F)(F)F)c2)c1` [B2A020-01, N-(1-Adamantylmethylsulfonyl)-6-[4-[3-[2-(5-ethoxypyridin-3-yl)ethynyl]-5-(trifluoromethyl)benzoyl]piperazin-1-yl]pyridazine-3-carboxamide], the “ASMS ratio (%) n = 1” value was determined as 3.4% and the “ASMS ratio (%) n = 2” value was 8.9%.

Consider `CCOc1cccc(-c2cnn(-c3cc(C(=O)N4CCN(c5ccc(C(=O)NS(=O)(=O)CC67CC8CC(CC(C8)C6)C7)nn5)CC4)cc(C(F)(F)F)c3)c2)c1` [B2A021-01, N-(1-Adamantylmethylsulfonyl)-6-[4-[3-[4-(3-ethoxyphenyl)pyrazol-1-yl]-5-(trifluoromethyl)benzoyl]piperazin-1-yl]pyridazine-3-carboxamide], for which the “ASMS ratio (%) n = 1” value was found to be 14.4% and the “ASMS ratio (%) n = 2” value is reported as 9.4%.

Take `CCOc1cncc(-c2cnn(-c3cc(C(=O)N4CCN(c5ccc(C(=O)NS(=O)(=O)CC67CC8CC(CC(C8)C6)C7)nn5)CC4)cc(C(F)(F)F)c3)c2)c1` [B2A022-01, N-(1-Adamantylmethylsulfonyl)-6-[4-[3-[4-(5-ethoxypyridin-3-yl)pyrazol-1-yl]-5-(trifluoromethyl)benzoyl]piperazin-1-yl]pyridazine-3-carboxamide]: the “ASMS ratio (%) n = 1” value was 27.0% and the “ASMS ratio (%) n = 2” value was 3.7%.

In the case of `CCOc1cccc(-c2csc(C(=O)N3CCN(c4ccc(C(=O)NS(=O)(=O)CC56CC7CC(CC(C7)C5)C6)cc4)CC3)c2)c1` [B2A023-01, N-(1-Adamantylmethylsulfonyl)-4-[4-[4-(3-ethoxyphenyl)thiophene-2-carbonyl]piperazin-1-yl]benzamide], the “ASMS ratio (%) n = 1” value is reported as 0.0% and the “ASMS ratio (%) n = 2” value was found to be 0.0%.

`CCOc1cncc(-c2csc(C(=O)N3CCN(c4ccc(C(=O)NS(=O)(=O)CC56CC7CC(CC(C7)C5)C6)cc4)CC3)c2)c1` [B2A024-01, N-(1-Adamantylmethylsulfonyl)-4-[4-[4-(5-ethoxypyridin-3-yl)thiophene-2-carbonyl]piperazin-1-yl]benzamide]: the “ASMS ratio (%) n = 1” value is listed as −1.9% and the “ASMS ratio (%) n = 2” value was 0.0%.

On to `CCOc1cccc(-c2ccc(C(=O)N3CCN(c4ccc(C(=O)NS(=O)(=O)CC56CC7CC(CC(C7)C5)C6)cc4)CC3)cc2C)c1` [B2A025-01, N-(1-Adamantylmethylsulfonyl)-4-[4-[4-(3-ethoxyphenyl)-3-methylbenzoyl]piperazin-1-yl]benzamide], for which the “ASMS ratio (%) n = 1” value is given as 4.6% and the “ASMS ratio (%) n = 2” value is −2.7%.

Turning to `CCOc1cncc(-c2ccc(C(=O)N3CCN(c4ccc(C(=O)NS(=O)(=O)CC56CC7CC(CC(C7)C5)C6)cc4)CC3)cc2C)c1` [B2A026-01, N-(1-Adamantylmethylsulfonyl)-4-[4-[4-(5-ethoxypyridin-3-yl)-3-methylbenzoyl]piperazin-1-yl]benzamide], the “ASMS ratio (%) n = 1” value is 0.8% and the “ASMS ratio (%) n = 2” value is given as −2.1%.

For the compound `CCOc1cccc(-c2ccc(C(=O)N3CCN(c4ccc(C(=O)NS(=O)(=O)CC56CC7CC(CC(C7)C5)C6)cc4)CC3)cc2F)c1` [B2A027-01, N-(1-Adamantylmethylsulfonyl)-4-[4-[4-(3-ethoxyphenyl)-3-fluorobenzoyl]piperazin-1-yl]benzamide], the “ASMS ratio (%) n = 1” value worked out at 5.5% and the “ASMS ratio (%) n = 2” value is −3.9%.

Take `CCOc1cncc(-c2ccc(C(=O)N3CCN(c4ccc(C(=O)NS(=O)(=O)CC56CC7CC(CC(C7)C5)C6)cc4)CC3)cc2F)c1` [B2A028-01, N-(1-Adamantylmethylsulfonyl)-4-[4-[4-(5-ethoxypyridin-3-yl)-3-fluorobenzoyl]piperazin-1-yl]benzamide]: the “ASMS ratio (%) n = 1” value is listed as −1.0% and the “ASMS ratio (%) n = 2” value is listed as 1.2%.

`CCOc1cncc(C#Cc2ccccc2C(=O)N2CCN(c3ccc(C(=O)NS(=O)(=O)CC45CC6CC(CC(C6)C4)C5)cc3)CC2)c1` [B2A030-01, N-(1-Adamantylmethylsulfonyl)-4-[4-[2-[2-(5-ethoxypyridin-3-yl)ethynyl]benzoyl]piperazin-1-yl]benzamide]: the “ASMS ratio (%) n = 1” value came to 0.0% and the “ASMS ratio (%) n = 2” value came out at 0.3%.

As to `CCOc1cccc(C#Cc2cncc(C(=O)N3CCN(c4ccc(C(=O)NS(=O)(=O)CC56CC7CC(CC(C7)C5)C6)cc4)CC3)c2)c1` [B2A031-01, N-(1-Adamantylmethylsulfonyl)-4-[4-[5-[2-(3-ethoxyphenyl)ethynyl]pyridine-3-carbonyl]piperazin-1-yl]benzamide], the “ASMS ratio (%) n = 1” value was found to be 0.0% and the “ASMS ratio (%) n = 2” value is recorded as 0.3%.

Take `CCOc1cncc(C#Cc2cncc(C(=O)N3CCN(c4ccc(C(=O)NS(=O)(=O)CC56CC7CC(CC(C7)C5)C6)cc4)CC3)c2)c1` [B2A032-01, N-(1-Adamantylmethylsulfonyl)-4-[4-[5-[2-(5-ethoxypyridin-3-yl)ethynyl]pyridine-3-carbonyl]piperazin-1-yl]benzamide]: the “ASMS ratio (%) n = 1” value worked out at 0.0% and the “ASMS ratio (%) n = 2” value is 0.0%.

Take `CCOc1cccc(-c2ccccc2CCC(=O)N2CCN(c3ccc(C(=O)NS(=O)(=O)CC45CC6CC(CC(C6)C4)C5)cc3)CC2)c1` [B2A033-01, N-(1-Adamantylmethylsulfonyl)-4-[4-[3-[2-(3-ethoxyphenyl)phenyl]propanoyl]piperazin-1-yl]benzamide]: the “ASMS ratio (%) n = 1” value is given as 1.7% and the “ASMS ratio (%) n = 2” value was −4.5%.

`CCOc1cncc(-c2ccccc2CCC(=O)N2CCN(c3ccc(C(=O)NS(=O)(=O)CC45CC6CC(CC(C6)C4)C5)cc3)CC2)c1` [B2A034-01, N-(1-Adamantylmethylsulfonyl)-4-[4-[3-[2-(5-ethoxypyridin-3-yl)phenyl]propanoyl]piperazin-1-yl]benzamide]: the “ASMS ratio (%) n = 1” value is 1.6% and the “ASMS ratio (%) n = 2” value is given as 0.3%.
